Data published in PMC10536189 (Microorganisms, 2023).
Like-named read-outs stand apart in the source and are kept apart here. Where no end group is shown, it is not given here.

Columns and labels:
M. tuberculosis = type: cell-based, Mycobacterium tuberculosis (laboratory strain H37Rv); settings: for Time to Positivity (Days.Hours) Experiment 2a / Time to Positivity (Days.Hours) Experiment 2b: diluted inoculum; for Time to Positivity (Days.Hours) Experiment 2a: technical repeat 2a, TB control (no peptide) 15.01; for Time to Positivity (Days.Hours) Experiment 2b: technical repeat 2b, TB control (no peptide) 15.20; for Time to Positivity (Days.Hours) Experiment 1a / Time to Positivity (Days.Hours) Experiment 1b: less diluted inoculum; for Time to Positivity (Days.Hours) Experiment 1a: technical repeat 1a, TB control (no peptide) 7.02; for Time to Positivity (Days.Hours) Experiment 1b: technical repeat 1b, TB control (no peptide) 7.01; for Average % Faster than Control: negative = slower
[1] = test system: Mycobacterium avium subsp. paratuberculosis (MAP); type: cell-based; settings: for Effect on growth of MAP compared to control: peptide 20 µg/mL, 37 °C
[2] = test system: Mycobacterium tuberculosis (MTB); type: cell-based, Mycobacterium tuberculosis (laboratory strain H37Rv)
[3] = peptide 10 µg/mL, overall average of the averages of experiments 1a/1b and 2a/2b
[4] = crude peptide 10 µg/mL, average of experiments 1 and 2
[5] = crude peptide 10 µg/mL, MGIT, independent experiment 1, Control (TB only) 11.10, inoculum emulsified through G25 needle
[6] = crude peptide 10 µg/mL, MGIT, independent experiment 2, Control (TB only) 9.10, inoculum emulsified through G25 needle

| Substance | Time to Positivity (Days.Hours) Experiment 2a (M. tuberculosis; peptide 10 µg/mL, MGIT) [Days.Hours] | Time to Positivity (Days.Hours) Experiment 2b (M. tuberculosis; peptide 10 µg/mL, MGIT) [Days.Hours] | Time to Positivity (Days.Hours) Experiment 1a (M. tuberculosis; peptide 10 µg/mL, MGIT) [Days.Hours] | Time to Positivity (Days.Hours) Experiment 1b (M. tuberculosis; peptide 10 µg/mL, MGIT) [Days.Hours] | Average % Faster than Control (M. tuberculosis; [3]) [%] | Time to Positivity (Day.Hours) Experiment 1 (M. tuberculosis) [Day.Hours] | Time to Positivity (Day.Hours) Experiment 2 (M. tuberculosis) [Day.Hours] | Average % Faster than Control (M. tuberculosis; [4]) [%] | other results |
| --- | --- | --- | --- | --- | --- | --- | --- | --- | --- |
| RLARIVVIRWAR-CONH2 (RLARIVVIRWAR-NH2) [Peptide 72] | 15.01 | 15.13 | 6.22 | 7.01 | −0.2 | – | – | – | Effect on growth of MAP compared to control [1]: significant reduction in the growth |
| rrwrivvirvrr-CONH2 [Peptide 69D] | – | – | – | – | – | – | – | – | Concentration at which growth inhibition of MTB is observed [2]: ≥ 10 µg/mL; Concentration with strong sustained growth stimulation of MTB [2]: 10 ng/mL; Effect on growth of MAP (growth-enhancing activity) of protease-stabilised peptides ([1]; peptide 10 µg/mL, absorbance at 600 nm): growth-enhancing activity remained |
| RLARIVVIRVRR-CONH2 (RLARIVVIRVRR-NH2) [Peptide 70] | 14.22 | 15.06 | 6.03 | 6.19 | 4.2 | – | – | – | Effect on growth of MAP compared to control [1]: no discernible effect on the growth |
| RRWRIVVIRVRR-CONH2 (RRWRIVVIRVRR-NH2) [Peptide 69] | 13.12 | 13.02 | 6.02 | 6.02 | 12.8 | – | – | – | Effect on growth of MTB compared to control [2]: slight improvements; Effect on TTP of MTB in words (M. tuberculosis; peptide 10 µg/mL, MGIT): strong hormetic response |
| 68: peptide from the authors' library (RLRRIVVIRVAR) [Peptide 68] | 15.00 | 15.23 | 6.09 | 6.17 | 2.3 | – | – | – | – |
| ILGAILPLVSGLLSNKL [Alyteserin-2b/Toad] | – | – | – | – | – | 11.18 | 8.02 | 5.6 | – |
| 9: peptide from the authors' library; same sequence as P9/Designed (KRRWRIWLV) [Peptide 9] | 15.08 | 14.21 | 6.07 | 6.04 | 5.8 | – | – | – | – |
| FFHHIFRGIVHVGKTI [Piscidin 1/Fish *, fragment of naturally occurring peptide, APD3, fish] | – | – | – | – | – | – | – | 7.8 | Time to Positivity (Day.Hours) Experiment 1 (M. tuberculosis; [5]): 10.18 Day.Hours; Time to Positivity (Day.Hours) Experiment 2 (M. tuberculosis; [6]): 8.12 Day.Hours |
| FLSTIWNGIKSLL [Pantinin-3/Scorpion] | – | – | – | – | – | 11.08 | 8.23 | 2.8 | – |
| ILPFLAGLFSKIL [Pelophylaxin-4/Frog] | – | – | – | – | – | 11.05 | 8.18 | 4.5 | – |
| FLGVVFKLASKVFPAV [D28/Designed *] | – | – | – | – | – | 11.02 | 8.09 | 7.0 | – |
| 67: peptide from the authors' library (RLWRIVVIRVAR) [Peptide 67] | 16.00 | 16.05 | 6.19 | 6.11 | −0.4 | – | – | – | – |
| LLGDFFRKSKEKIGKEFKRIVQRIKDFLRNLVPRTES [Peptide 78, reference compound] | 14.15 | 15.00 | 6.08 | 6.09 | 5.8 | – | – | – | Effect on TTP of MTB in words (M. tuberculosis; peptide 10 µg/mL, MGIT): lower TTP |
| WGKLFKLGLHGIGLLH [NRC-15/Fish *] | – | – | – | – | – | 10.21 | 8.07 | 8.3 | – |
| GFWGKLFKLGLHGIGL [NRC-15/Flounder] | – | – | – | – | – | 11.02 | 8.14 | 5.9 | – |
| LLAGLPKLLCLFFKKC [Brevinin-1DYc/Frog] | – | – | – | – | – | 11.10 | 8.16 | 4.0 | – |
| 65: peptide from the authors' library (RGARIVVIRVAR) [Peptide 65] | 16.11 | 16.01 | 6.16 | 6.03 | 0.8 | – | – | – | – |
| FIFIRWLLKLGHHGRA [Salusin-beta/Scorpion *] | – | – | – | – | – | 10.18 | 8.03 | 9.8 | – |
| FLSLIPSLVGGSISAFK [TsAP-1/Scorpion] | – | – | – | – | – | 11.07 | 8.05 | 7.0 | – |
| SAPRGCWTKSYPPKPCK [Ranacyclin E/Frog] | – | – | – | – | – | 10.07 | 8.01 | 12.2 | – |
| FGKILGVGKKVLCGLS [Odorranain-H1/Frog *] | – | – | – | – | – | 10.19 | 8.03 | 9.6 | – |
| LFKLLGKIIHHVGNFV [Clavanin E/Sea squirt, naturally occurring peptide, APD3, sea squirt] | – | – | – | – | – | – | – | 5.8 | Time to Positivity (Day.Hours) Experiment 1 (M. tuberculosis; [5]): 11.05 Day.Hours; Time to Positivity (Day.Hours) Experiment 2 (M. tuberculosis; [6]): 8.12 Day.Hours |
| 64: peptide from the authors' library (RLARIVVIRVAR) [Peptide 64] | 15.21 | 16.13 | 6.19 | 6.16 | −1.4 | – | – | – | – |
| LVPLFLSKLICFITKKC [Brevinin 1Tb/Frog] | – | – | – | – | – | 11.10 | 8.15 | 4.2 | – |
| OdVP2/Wasp: naturally occurring peptide, APD3, wasp (ILGIITSLLKSLGKK) | – | – | – | – | – | 10.22 | 8.11 | 7.3 | – |
| YAYVRIRGVLVRYRRC [Arenicin-2/Lugworm] | – | – | – | – | – | 11.13 | 8.03 | 6.3 | – |
| FFPFLLGALGSLLPKIF [Temporin-SN1/Frog] | – | – | – | – | – | 10.22 | 8.23 | 4.6 | – |
| 12: peptide from the authors' library (RRRIKIRWY) [Peptide 12] | 14.08 | 14.22 | 6.14 | 5.20 | 10.2 | – | – | – | Effect on TTP of MTB in words (M. tuberculosis; peptide 10 µg/mL, MGIT): strong hormetic response |
| GAILPLALGALKNLIK [Hylin a1/Frog] | – | – | – | – | – | 11.14 | 8.02 | 6.3 | – |
